This experiment addresses T1, human neutrophil elastase (HNE) (Homo sapiens, UniProt P08246).
T1 construct: purchased Sigma E8140
T1 sequence (P08246 30-247 limits assumed): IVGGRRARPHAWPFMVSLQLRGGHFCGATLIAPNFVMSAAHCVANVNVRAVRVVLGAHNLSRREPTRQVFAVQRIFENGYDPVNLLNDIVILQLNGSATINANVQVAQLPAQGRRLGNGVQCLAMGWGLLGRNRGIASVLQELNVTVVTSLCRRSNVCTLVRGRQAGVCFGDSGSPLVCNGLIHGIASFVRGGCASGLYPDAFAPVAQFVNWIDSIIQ
As to the kind of experiment: HNE enzyme activity assay. As to conditions: human leukocyte elastase, substrate MeOSuc-Ala-Ala-Pro-Val-AMC 100 μM, 25° C. for 30 minutes, fluorescence; read-out: HNE inhibition. The experiment is classed as biochemical. The method, then:
Compounds of the present invention were tested for potency in a human neutrophil elastase (HNE) enzyme activity assay.
Assays were performed in 96-well plates in a total assay volume of 100 μl. The final concentration of elastase enzyme (human leukocyte elastase, Sigma E8140) was 0.0036 units/well […]. The peptide substrate (MeOSuc-Ala-Ala-Pro-Val-AMC, Calbiochem #324740) was used at a final concentration of 100 μM. The final concentration of DMSO was 1% in the assay buffer (0.05M Tris.HCl, 0.1M NaCl, 0.1M CaCl2, 0.0005% brij-35, pH 7.5). The enzymatic reaction was started by addition of the enzyme and incubated at 25° C. for 30 minutes. After incubation, the reaction was stopped by addition of soybean trypsin inhibitor (Sigma T9003) at a final concentration of 50 μg/well. Fluorescence was measured using a Molecular Devices fluorescence plate reader using 380 nm excitation and 460 nm emission wavelengths.
A dose response to each compound was performed and the effect of compound in each experiment was expressed as a percentage inhibition of the control enzyme fluorescence. Dose response curves were plotted and compound potency (IC50) was determined. Compounds were tested in at least two separate experiments.

Some results are limits rather than exact numbers.

Take `Cc1c(-c2ccnn2-c2ccc(C#N)cc2)cn2nc(N)nc2c1-c1cccc(C(F)(F)F)c1` [Example 1, 4-{5-[2-Amino-7-methyl-8-(3-trifluoromethyl-phenyl)-[1,2,4]triazolo[1,5-a]pyridin-6-yl]-pyrazol-1-yl}-benzonitrile]: the IC50 was 20 to 100 nM.
Consider `Cc1c(-c2ccnn2-c2ccc(C#N)cc2)cn2cc(NC(=O)C(F)(F)F)nc2c1-c1cccc(C(F)(F)F)c1` [Example 2], for which the IC50 lay in the range of 100 to 500 nM.
Take `Cc1c(-c2ccnn2-c2ccc(C#N)cc2)cn2ncnc2c1-c1cccc(C(F)(F)F)c1` [Example 3, 4-{5-[7-Methyl-8-(3-trifluoromethyl-phenyl)-[1,2,4]triazolo[1,5-a]pyridin-6-yl]-pyrazol-1-yl}-benzonitrile]: the IC50 was less than 20 nM.
Under `Cc1nc2c(-c3cccc(C(F)(F)F)c3)c(C)c(-c3ccnn3-c3ccc(C#N)cc3)cn2n1` [Example 4, 4-{5-[2,7-Dimethyl-8-(3-trifluoromethyl-phenyl)-[1,2,4]triazolo[1,5-a]pyridin-6-yl]-pyrazol-1-yl}-benzonitrile] stands more than 500 nM; under `Cc1cn2cc(-c3ccnn3-c3ccc(C#N)cc3)c(C)c(-c3cccc(C(F)(F)F)c3)c2n1` [Example 5, 4-{5-[2,7-Dimethyl-8-(3-trifluoromethyl-phenyl)-imidazo[1,2-a]pyridin-6-yl]-pyrazol-1-yl}-benzonitrile], more than 500 nM.
Under `Cc1c(-c2ccnn2-c2ccc(C#N)cc2)cn2ccnc2c1-c1cccc(C(F)(F)F)c1` [Example 6, 4-{5-[7-Methyl-8-(3-trifluoromethyl-phenyl)-imidazo[1,2-a]pyridin-6-yl]-pyrazol-1-yl}-benzonitrile] stands 20 to 100 nM; under `Cc1c(-c2ccnn2-c2ccc(C#N)cc2)cn2nc(Nc3ccc(S(C)(=O)=O)cc3)nc2c1-c1cccc(C(F)(F)F)c1` [Example 7, 4-{5-[2-(4-Methanesulfonyl-phenylamino)-7-methyl-8-(3-trifluoromethyl-phenyl)-[1,2,4]triazolo[1,5-a]pyridin-6-yl]-pyrazol-1-yl}-benzonitrile], less than 20 nM.
Under `Cc1c(-c2ccnn2-c2ccc(C#N)cc2)cn2nc(Cc3ccc(S(C)(=O)=O)cc3)nc2c1-c1cccc(C(F)(F)F)c1` [Example 8, 4-{5-[2-(4-Methanesulfonyl-benzyl)-7-methyl-8-(3-trifluoromethyl-phenyl)-[1,2,4]triazolo[1,5-a]pyridin-6-yl]-pyrazol-1-yl}-benzonitrile] stands 100 to 500 nM; under `Cc1c(-c2ccnn2-c2ccc(C#N)cc2)cn2c(=O)[nH]nc2c1-c1cccc(C(F)(F)F)c1` [Example 9, 4-{5-[7-Methyl-3-oxo-8-(3-trifluoromethyl-phenyl)-2,3-dihydro-[1,2,4]triazolo[4,3-a]pyridin-6-yl]-pyrazol-1-yl}-benzonitrile], less than 20 nM.
As to `Cc1c(-c2ccnn2-c2ccc(C#N)cc2)cn2c(=O)n(Cc3ccc(S(C)(=O)=O)cc3)nc2c1-c1cccc(C(F)(F)F)c1` [Example 10, 4-{5-[2-(4-Methanesulfonyl-benzyl)-7-methyl-3-oxo-8-(3-trifluoromethyl-phenyl)-2,3-dihydro-[1,2,4]triazolo[4,3-a]pyridin-6-yl]-pyrazol-1-yl}-benzonitrile], the IC50 lay in the range of 100 to 500 nM.
Under `Cc1c(-c2ccnn2-c2ccc(C#N)cc2)cn2c(=O)n(CC(=O)N(C)C)nc2c1-c1cccc(C(F)(F)F)c1` [Example 11, 2-[6-[2-(4-Cyano-phenyl)-2H-pyrazol-3-yl]-7-methyl-3-oxo-8-(3-trifluoromethyl-phenyl)-[1,2,4]triazolo[4,3-a]pyridin-2-yl]-N,N-dimethyl-acetamide] stands more than 500 nM; under `CNC(=O)Cn1nc2c(-c3cccc(C(F)(F)F)c3)c(C)c(-c3ccnn3-c3ccc(C#N)cc3)cn2c1=O` [Example 12, 2-[6-[2-(4-Cyano-phenyl)-2H-pyrazol-3-yl]-7-methyl-3-oxo-8-(3-trifluoromethyl-phenyl)-[1,2,4]triazolo[4,3-a]pyridin-2-yl]-N-methyl-acetamide], 100 to 500 nM.
Regarding `Cc1c(-c2ccnn2-c2ccc(C#N)cc2)cn2c(=O)n(CCCS(C)(=O)=O)nc2c1-c1cccc(C(F)(F)F)c1` [Example 13, 4-{5-[2-(3-Methanesulfonyl-propyl)-7-methyl-3-oxo-8-(3-trifluoromethyl-phenyl)-2,3-dihydro-[1,2,4]triazolo[4,3-a]pyridin-6-yl]-pyrazol-1-yl}-benzonitrile], the IC50 fell in the range of 100 to 500 nM.
Under `Cc1c(-c2ccnn2-c2ccc(C#N)cc2)cn2nc(NC(=O)CN(C)C)nc2c1-c1cccc(C(F)(F)F)c1` [Example 14, N-[6-[2-(4-Cyano-phenyl)-2H-pyrazol-3-yl]-7-methyl-8-(3-trifluoromethyl-phenyl)-[1,2,4]triazolo[1,5-a]pyridin-2-yl]-2-dimethylamino-acetamide] stands less than 20 nM; under `Cc1c(-c2ccnn2-c2ccc(C#N)cc2)cn2nc(NC(=O)C[N+](C)(C)C)nc2c1-c1cccc(C(F)(F)F)c1` [Example 15, {[6-[2-(4-Cyano-phenyl)-2H-pyrazol-3-yl]-7-methyl-8-(3-trifluoromethyl-phenyl)-[1,2,4]triazolo[1,5-a]pyridin-2-ylcarbamoyl]-methyl}-trimethyl-ammonium bromide], 20 to 100 nM; under `Cc1c(-c2ccnn2-c2ccc(C#N)cc2)cn2nc(NC(=O)CCCN(C)C)nc2c1-c1cccc(C(F)(F)F)c1` [Example 16, N-[6-[2-(4-Cyano-phenyl)-2H-pyrazol-3-yl]-7-methyl-8-(3-trifluoromethyl-phenyl)-[1,2,4]triazolo[1,5-a]pyridin-2-yl]-4-dimethylamino-butyramide], less than 20 nM.
Under `Cc1c(-c2ccnn2-c2ccc(C#N)cc2)cn2nc(NC(=O)CCC[N+](C)(C)C)nc2c1-c1cccc(C(F)(F)F)c1` [Example 17, {3-[6-[2-(4-Cyano-phenyl)-2H-pyrazol-3-yl]-7-methyl-8-(3-trifluoromethyl-phenyl)-[1,2,4]triazolo[1,5-a]pyridin-2-ylcarbamoyl]-propyl}-trimethyl-ammonium bromide] stands less than 20 nM; under `Cc1c(-c2ccnn2-c2ccc(C#N)cc2)cn2nc(NC(=O)CN3CCN(C)CC3)nc2c1-c1cccc(C(F)(F)F)c1` [Example 18, N-[6-[2-(4-Cyano-phenyl)-2H-pyrazol-3-yl]-7-methyl-8-(3-trifluoromethyl-phenyl)-[1,2,4]triazolo[1,5-a]pyridin-2-yl]-2-(4-methyl-piperazin-1-yl)-acetamide], less than 20 nM.
Turning to `Cc1c(-c2ccnn2-c2ccc(C#N)cc2)cn2nc(NC(=O)CN3CC[N+](C)(C)CC3)nc2c1-c1cccc(C(F)(F)F)c1` [Example 19, 4-{[6-[2-(4-Cyano-phenyl)-2H-pyrazol-3-yl]-7-methyl-8-(3-trifluoromethyl-phenyl)-[1,2,4]triazolo[1,5-a]pyridin-2-ylcarbamoyl]-methyl}-1,1-dimethyl-piperazin-1-ium iodide], the IC50 is less than 20 nM.
Under `Cc1c(-c2ccnn2-c2ccc(C#N)cc2)cn2nc(NC(=O)CN3CCOCC3)nc2c1-c1cccc(C(F)(F)F)c1` [Example 20, N-[6-[2-(4-Cyano-phenyl)-2H-pyrazol-3-yl]-7-methyl-8-(3-trifluoromethyl-phenyl)-[1,2,4]triazolo[1,5-a]pyridin-2-yl]-2-morpholin-4-yl-acetamide] stands less than 20 nM; under `Cc1c(-c2ccnn2-c2ccc(C#N)cc2)cn2nc(NC(=O)CN3CCS(=O)(=O)CC3)nc2c1-c1cccc(C(F)(F)F)c1` [Example 21, N-[6-[1-(4-Cyano-phenyl)-1H-pyrazol-5-yl]-7-methyl-8-(3-trifluoromethyl-phenyl)-[1,2,4]triazolo[1,5-a]pyridin-2-yl]-2-(1,1-dioxothiomorpholin-4-yl)-acetamide], less than 20 nM.
As for `Cc1c(-c2ccnn2-c2ccc(C#N)cc2)cn2nc(NC(=O)c3ccc(S(C)(=O)=O)cc3)nc2c1-c1cccc(C(F)(F)F)c1` [Example 22, N-[6-[2-(4-Cyano-phenyl)-2H-pyrazol-3-yl]-7-methyl-8-(3-trifluoromethyl-phenyl)-[1,2,4]triazolo[1,5-a]pyridin-2-yl]-4-methanesulfonyl-benzamide], the IC50 was less than 20 nM.
With `Cc1c(-c2ccnn2-c2ccc(C#N)cc2)cn2nc(NCc3ccc(S(C)(=O)=O)cc3)nc2c1-c1cccc(C(F)(F)F)c1` [Example 23, 4-{5-[2-(4-Methanesulfonyl-benzylamino)-7-methyl-8-(3-trifluoromethyl-phenyl)-[1,2,4]triazolo[1,5-a]pyridin-6-yl]-pyrazol-1-yl}-benzonitrile], the IC50 was less than 20 nM.
Under `Cc1c(-c2ccnn2-c2ccc(C#N)cc2)cn2nc(NCC(=O)N(C)C)nc2c1-c1cccc(C(F)(F)F)c1` [Example 24, 2-[6-[2-(4-Cyano-phenyl)-2H-pyrazol-3-yl]-7-methyl-8-(3-trifluoromethyl-phenyl)-[1,2,4]triazolo[1,5-a]pyridin-2-ylamino]-N,N-dimethyl-acetamide] stands less than 20 nM.
